Test results as given in publication PMC12737022, “Evaluations of Sex Differences in Dosimetry in Rats Following Perfluorohexanesulfonamide (PFHxSA) Oral Exposure” (Toxics, 2025).
Where two headings read alike, the source gives them in different places.

Key:
[1] = tested on: human hepatocytes; set-up: method as in Crizer et al. [59]; conditions: ref Crizer et al. [59]; cited from earlier work
[2] = Ultracentrifugation plasma protein binding assay, rat plasma; type: in vitro ADME; conditions: for fraction unbound at 1 h, 10 µM: both sexes, SD
Procedure: Human and rat plasma were evaluated for plasma protein binding of PFHxSA and PFHxS using ultracentrifugation. Data generated in human plasma were obtained from an earlier study; for this study, data were generated in rat plasma following the same protocol as described by Smeltz et al.. SD rat plasma (pooled, mixed sex) was obtained from a commercial vendor (BioIVT, Westbury, NY, USA). Briefly, PFHxSA and PFHxS were added to the plasma to achieve a final assay concentration of 10 µM. Following a 1 h 37 °C incubation, 1 mL aliquots from each plasma solution were drawn in triplicate and transferred to polycarbonate ultracentrifuge tubes. These samples underwent ultracentrifugation (Beckman OptimaMax; Beckman Coulter Inc., Indianapolis, IN, USA) at 850,000× g for 4 h at 37 °C; after completion, the aqueous fraction (AF) was collected by transferring the supernatant to a new tube. Two sets of samples of the original PFAS-spiked whole plasma were also collected after a 1 h or a 5 h incubation at 37 °C. All samples were combined with 3 volumes of ice-cold ACN containing relevant internal standard, vigorously mixed, then centrifuged at 12,000× g for 10 min at 4 °C. Supernatants were collected and then stored at <−70 °C until analysis.
Targeted, quantitative analysis of in vitro hepatocyte metabolic stability and plasma protein binding assay samples was conducted on a Waters (Milford, MA, USA) Xevo-TQS micro ultra-high-performance liquid chromatography tandem mass spectrometry system (UPLC-MS/MS), modified with a PFAS analysis kit. Samples were analyzed in negative ion mode with UniSpray ionization. Samples were analyzed in triplicate, with a reference compound included to evaluate assay performance. A CORTECS T3 column (Waters; 3 mm × 100 mm, 2.7 µm) was used for chromatographic separation with a flow rate of 0.6 mL/min and a temperature of 55 °C. Gradient elution was used with mobile phase A (95:5 H2O/ACN) and mobile phase B (95:5 ACN/H2O), each with 2.5 mM of ammonium acetate added. More details are provided in Smeltz et al..
Intrinsic hepatic clearance (Clint) and fraction unbound in plasma (fup) were calculated from the experimental point estimate data as described in Dobreniecki et al.. Steady-state concentrations (Css) were derived based on zero-order uptake of an assumed daily dose from the gut (assuming 100% intestinal bioavailability) but considering hepatic clearance and non-metabolic renal clearance. Renal clearance was calculated using the glomerular filtration rate (a species-dependent constant) and the fraction unbound in blood (fub), estimated by adjusting the experimental fup for blood/plasma partitioning. The Css calculations, along with underlying species-specific physiologic scalars, are detailed in SI Texts S6 and S7.

[3] = blood (estimated from fup in plasma), Rat, fup adjusted for blood/plasma partitioning, read-out: fub (fraction unbound in blood)
[4] = Rat plasma, 10 µM, ultracentrifugation, read-out: fup (fraction unbound in plasma)

NS(=O)(=O)C(F)(F)C(F)(F)C(F)(F)C(F)(F)C(F)(F)C(F)(F)F [PFHxSA, Perfluorohexanesulfonamide]
Clhep (hepatic clearance) [1]: 0 ^2 L/h | fraction unbound at 1 h, 10 µM [2, 3]: 0.0018 | fraction unbound at 1 h, 10 µM [2, 4]: 0.001

O=S(=O)(O)C(F)(F)C(F)(F)C(F)(F)C(F)(F)C(F)(F)C(F)(F)F [PFHxS, perfluorohexane sulfonic acid]
Clhep (hepatic clearance) [1]: 0 ^2 L/h | fraction unbound at 1 h, 10 µM [2, 3]: 0.0014 | fraction unbound at 1 h, 10 µM [2, 4]: 0.0008 | Plasma binding of PFHxS higher than PFHxSA ([2]; rat plasma): 25%
